Reference: patent US20250163077A1, “MEMBRANE-ASSOCIATED TYROSINE- AND THREONINE-SPECIFIC CDC2-INHIBITORY KINASE (PKMYT1) INHIBITORS AND USES THEREOF” (Insilico Medicine IP Limited, priority 2022, published 2025)

What was measured:
[1] = biological target: PKMYT1 (Homo sapiens (Human), UniProt Q99640); assay: PKMYT1 HTRF Assay; type: binding; conditions: Tracer 178, compound 10 μM to 0.5 nM, read-out: MYT1 HTRF IC50
Protocol: Compound serial dilution is performed by Echo, and the final concentrations vary from 10 μM to 0.5 nM. This was filled by the addition of 5 μL/well of Enzyme solution to the assay plate containing the compound. The plate was centrifuged at 1000 rpm for 1 minute, and incubate 15 minutes at 25° C. […] Next 5 μL GST-Tb was added into the assay plate, the plate was centrifuged at 1000 rpm for 1 minute, and incubate for 15 minutes at 25° C. The assay plate was read on Envision.

[2] = biological target: WEE1 (Homo sapiens (Human), UniProt P30291); assay: WEE1 ADP-Glo Assay; type: biochemical; conditions: compound 10 μM to 0.5 nM
Sequence of WEE1 (P30291 whole entry): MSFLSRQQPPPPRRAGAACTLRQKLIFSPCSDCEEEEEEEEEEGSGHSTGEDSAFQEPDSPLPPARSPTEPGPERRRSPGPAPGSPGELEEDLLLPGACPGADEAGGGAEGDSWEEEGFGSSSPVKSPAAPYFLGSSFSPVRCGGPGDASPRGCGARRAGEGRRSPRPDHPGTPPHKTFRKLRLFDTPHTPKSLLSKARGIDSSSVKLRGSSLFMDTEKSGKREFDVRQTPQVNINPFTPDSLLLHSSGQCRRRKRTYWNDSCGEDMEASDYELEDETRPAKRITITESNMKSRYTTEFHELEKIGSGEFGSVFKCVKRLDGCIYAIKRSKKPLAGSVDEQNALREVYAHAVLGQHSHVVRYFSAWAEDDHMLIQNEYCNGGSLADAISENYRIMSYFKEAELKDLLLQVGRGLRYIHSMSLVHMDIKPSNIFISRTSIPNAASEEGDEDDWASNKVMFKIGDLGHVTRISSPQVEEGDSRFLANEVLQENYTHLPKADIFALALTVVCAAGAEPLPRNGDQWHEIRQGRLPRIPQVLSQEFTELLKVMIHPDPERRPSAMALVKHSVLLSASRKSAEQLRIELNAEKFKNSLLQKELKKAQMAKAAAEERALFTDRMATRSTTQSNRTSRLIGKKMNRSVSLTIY
Protocol: Compound serial dilution is performed by Echo, and the final concentrations vary from 10 μM to 0.5 nM. This was filled by the addition of 5 μL/well of Enzyme solution to the assay plate containing the compound. The plate was centrifuged at 1000 rpm for 1 minute, and incubate 15 minutes at 25° C. Then 5 μL/well of substrate solution was added to initiate the reaction, and incubate for 60 minutes at 25° C. Next 10 μL kinase detection reagent was added into the assay plate, the plate was centrifuged at 1000 rpm for 1 minute, and incubate for 60 minutes at […]. The assay plate was read on Envision for US LUM as RLU.

Sequence of PKMYT1 (Q99640 whole entry): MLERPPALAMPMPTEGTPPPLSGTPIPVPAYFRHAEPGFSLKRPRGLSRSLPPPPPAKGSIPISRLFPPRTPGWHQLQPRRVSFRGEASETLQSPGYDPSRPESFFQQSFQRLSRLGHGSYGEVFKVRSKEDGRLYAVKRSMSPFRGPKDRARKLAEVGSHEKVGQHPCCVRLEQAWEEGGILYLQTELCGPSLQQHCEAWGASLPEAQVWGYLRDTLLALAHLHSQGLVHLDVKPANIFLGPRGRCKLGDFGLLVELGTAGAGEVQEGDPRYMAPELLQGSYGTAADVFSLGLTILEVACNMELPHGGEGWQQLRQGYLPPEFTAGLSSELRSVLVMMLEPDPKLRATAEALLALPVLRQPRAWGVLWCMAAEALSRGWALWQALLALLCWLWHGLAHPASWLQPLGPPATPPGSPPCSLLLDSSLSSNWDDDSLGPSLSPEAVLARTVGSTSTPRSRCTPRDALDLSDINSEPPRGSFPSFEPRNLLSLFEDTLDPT

| Compound | IC50 [1] | IC50 [2] |
| --- | --- | --- |
| Cc1ccc(O)c(C)c1-n1c(N)c(C(=O)N2CCc3ncsc3C2)c2nc(C)c(C)nc21 [Example 5, (6-amino-5-(3-hydroxy-2,6-dimethylphenyl)-2,3-dimethyl-5H-pyrrolo[2,3-b]pyrazin-7-yl)(6,7-dihydrothiazolo[5,4-c]pyridin-5(4H)-yl)methanone] | 10 to 50 nM | > 10000 nM |
| Cc1ccc(O)c(C)c1-n1c(N)c(C(=O)N2CCc3nn(C)cc3C2)c2nc(C)c(C)nc21 [Example 6, (6-amino-5-(3-hydroxy-2,6-dimethylphenyl)-2,3-dimethyl-5H-pyrrolo[2,3-b]pyrazin-7-yl)(2-methyl-2,4,6,7-tetrahydro-5H-pyrazolo[4,3-c]pyridin-5-yl)methanone] | 10 to 50 nM | > 10000 nM |
| Cc1ccc(O)c(C)c1-n1c(N)c(C(=O)N2CCc3ncccc3C2)c2nc(C)c(C)nc21 [Example 7, (6-amino-5-(3-hydroxy-2,6-dimethylphenyl)-2,3-dimethyl-5H-pyrrolo[2,3-b]pyrazin-7-yl)(7,8-dihydro-1,6-naphthyridin-6(5H)-yl)methanone] | < 10 nM | > 10000 nM |
| Cc1ccc(O)c(C)c1-n1c(N)c(C(=O)N2CCc3ncsc3C2)c2cc(Cl)cnc21 [Example 9, (2-amino-5-chloro-1-(3-hydroxy-2,6-dimethylphenyl)-1H-pyrrolo[2,3-b]pyridin-3-yl)(6,7-dihydrothiazolo[5,4-c]pyridin-5(4H)-yl)methanone] | 10 to 50 nM | > 10000 nM |
| Cc1nc2n(n1)CCN(C(=O)c1c(N)n(-c3c(C)ccc(O)c3C)c3ncc(Cl)cc13)C2 [Example 10, (2-amino-5-chloro-1-(3-hydroxy-2,6-dimethylphenyl)-1H-pyrrolo[2,3-b]pyridin-3-yl)(2-methyl-5,6-dihydro-[1,2,4]triazolo[1,5-a]pyrazin-7(8H)-yl)methanone] | 10 to 50 nM | > 10000 nM |
| Cc1cc2n(n1)CCN(C(=O)c1c(N)n(-c3c(C)ccc(O)c3C)c3ncc(Cl)cc13)C2 [Example 11, (2-amino-5-chloro-1-(3-hydroxy-2,6-dimethylphenyl)-1H-pyrrolo[2,3-b]pyridin-3-yl)(2-methyl-6,7-dihydropyrazolo[1,5-a]pyrazin-5(4H)-yl)methanone] | 10 to 50 nM | > 10000 nM |
| Cc1ccc(O)c(C)c1-n1c(N)c(C(=O)N2CCn3nc(C(F)(F)F)nc3C2)c2cc(Cl)cnc21 [Example 12, (2-amino-5-chloro-1-(3-hydroxy-2,6-dimethylphenyl)-1H-pyrrolo[2,3-b]pyridin-3-yl)(2-(trifluoromethyl)-5,6-dihydro-[1,2,4]triazolo[1,5-a]pyrazin-7(8H)-yl)methanone] | 10 to 50 nM | > 10000 nM |
| Cc1ccc(O)c(C)c1-n1c(N)c(C(=O)N2CCn3ncc(CO)c3C2)c2nc(C)c(C)nc21 [Example 16, (6-amino-5-(3-hydroxy-2,6-dimethylphenyl)-2,3-dimethyl-5H-pyrrolo[2,3-b]pyrazin-7-yl)(3-(hydroxymethyl)-6,7-dihydropyrazolo[1,5-a]pyrazin-5(4H)-yl)methanone] | < 10 nM | > 10000 nM |
| Cc1ccc(O)c(C)c1-n1c(N)c(C(=O)N2CCn3nc(C(C)(C)O)cc3C2)c2nc(C)c(C)nc21 [Example 19] | 500 to 5000 nM |  |
| Cc1ccc(O)c(C)c1-n1c(N)c(C(=O)N2CCn3nccc3C2C)c2nc(C)c(C)nc21 (stereo not drawn) [Example 26, (6-amino-5-(3-hydroxy-2,6-dimethylphenyl)-2,3-dimethyl-5H-pyrrolo[2,3-b]pyrazin-7-yl)(4-methyl-6,7-dihydropyrazolo[1,5-a]pyrazin-5(4H)-yl)methanone] | 500 to 5000 nM | > 10000 nM |
| Cc1ccc(O)c(C)c1-n1c(N)c(C(=O)N2CCn3c(nnc3C(F)(F)F)C2)c2cc(Cl)cnc21 [Example 27, (2-amino-5-chloro-1-(3-hydroxy-2,6-dimethylphenyl)-1H-pyrrolo[2,3-b]pyridin-3-yl)(3-(trifluoromethyl)-5,6-dihydro-[1,2,4]triazolo[4,3-a]pyrazin-7(8H)-yl)methanone] | 50 to 500 nM | > 10000 nM |
| Cc1ccc(O)c(Cl)c1-n1c(N)c(C(=O)N2CCn3nccc3C2)c2nc(C)c(C)nc21 [Example 28, (6-amino-5-(2-chloro-3-hydroxy-6-methylphenyl)-2,3-dimethyl-5H-pyrrolo[2,3-b]pyrazin-7-yl)(6,7-dihydropyrazolo[1,5-a]pyrazin-5(4H)-yl)methanone] | < 10 nM | 5430 nM |
| Cc1cc(F)c(O)c(C)c1-n1c(N)c(C(=O)N2CCn3nccc3C2)c2nc(C)c(C)nc21 [Example 29, (6-amino-5-(4-fluoro-3-hydroxy-2,6-dimethylphenyl)-2,3-dimethyl-5H-pyrrolo[2,3-b]pyrazin-7-yl)(6,7-dihydropyrazolo[1,5-a]pyrazin-5(4H)-yl)methanone] | 10 to 50 nM | > 10000 nM |
| C=Cc1cnc2c(n1)c(C(=O)N1CCn3nccc3C1)c(N)n2-c1c(C)ccc(O)c1C [Example 33, (6-amino-5-(3-hydroxy-2,6-dimethylphenyl)-2-vinyl-5H-pyrrolo[2,3-b]pyrazin-7-yl)(6,7-dihydropyrazolo[1,5-a]pyrazin-5(4H)-yl)methanone] | 10 to 50 nM | > 10000 nM |
| Cc1ccc(O)c(C)c1-n1c(N)c(C(=O)N2CCn3nccc3C2)c2nc(C(F)(F)F)ncc21 [Example 38, (6-amino-5-(3-hydroxy-2,6-dimethylphenyl)-2-(trifluoromethyl)-5H-pyrrolo[3,2-d]pyrimidin-7-yl)(6,7-dihydropyrazolo[1,5-a]pyrazin-5(4H)-yl)methanone] | 50 to 500 nM | > 10000 nM |
| CC#Cc1nc2c(C(=O)N3CCn4nccc4C3)c(N)n(-c3c(C)ccc(O)c3C)c2nc1C [Example 40, (6-amino-5-(3-hydroxy-2,6-dimethylphenyl)-3-methyl-2-(prop-1-yn-1-yl)-5H-pyrrolo[2,3-b]pyrazin-7-yl)(6,7-dihydropyrazolo[1,5-a]pyrazin-5(4H)-yl)methanone] | 10 to 50 nM |  |
